Measured values as given in ChEMBL document CHEMBL4145528, “Novel dissymmetric 3,5-bis(arylidene)-4-piperidones as potential antitumor agents with biological evaluation in vitro and in vivo” (Eur J Med Chem, 2018).
Calls of active or inactive are those of the source. The calls are words filed in the database; no cut-off is given here.

Tests used:
[1] = tested on: HepG2; assay: Cytotoxicity against human HepG2 cells assessed as reduction in cell viability after 24 hrs by MTT assay; type: functional, cell-based; settings: for IC50: HepG2, 24 h
[2] = tested on: THP-1; assay: Cytotoxicity against human THP1 cells assessed as reduction in cell viability after 24 hrs by MTT assay; type: functional, cell-based; settings: for IC50: THP-1, 24 h
[3] = tested on: HeLa; assay: Cytotoxicity against human HeLa cells assessed as reduction in cell viability after 24 hrs by MTT assay; type: functional, cell-based
[4] = tested on: K562; assay: Cytotoxicity against human K562 cells assessed as reduction in cell viability after 24 hrs by MTT assay; type: functional, cell-based; settings: for IC50: K562, 24 h
[5] = tested on: L02; assay: Cytotoxicity against human LO2 cells assessed as reduction in cell viability after 24 hrs by MTT assay; type: cell-based; settings: L02, 24 h
[6] = tested on: HepG2; assay: Downregulation of Bcl2 protein expression in human HepG2 cells at 50 uM after 3 hrs by western blot analysis; type: functional, cell-based
[7] = tested on: HepG2; assay: Upregulation of Bax protein expression in human HepG2 cells at 50 uM after 3 hrs by western blot analysis; type: functional, cell-based
[8] = tested on: HepG2; assay: Antitumor activity against human HepG2 cells xenografted in Balb/c nude mouse assessed as tumor growth inhibition at 1 mg/kg/2 days, ip for 20 days measured on day 21; type: functional, organism-based
[9] = Drug uptake in human HepG2 cell nucleus at 10 mg/ml after 4 hrs by Hoechst 33342 staining based confocal laser scanning microscopic method; type: ADME, subcellular; settings: hepg2, 4 h
[10] = tested on: HepG2; assay: Cytotoxicity against human HepG2 cells assessed as cell morphology disruption at 10 mg/ml after 4 hrs by Hoechst 33342 staining based confocal laser scanning microscopic method; type: functional
[11] = tested on: HepG2; assay: Antitumor activity against human HepG2 cells xenografted in Balb/c nude mouse assessed as tumor growth inhibition at 10 mg/kg/day, ip daily for 20 days measured on day 21; type: functional, organism-based
[12] = Drug uptake in human HepG2 cell nucleus at 10 mg/ml after 1 to 3 hrs by Hoechst 33342 staining based confocal laser scanning microscopic method; type: ADME, subcellular
[13] = Drug uptake in human HepG2 cell cytoplasm at 10 mg/ml after 1 to 3 hrs by Hoechst 33342 staining based confocal laser scanning microscopic method; type: ADME, subcellular
[14] = tested on: HepG2; assay: Induction of apoptosis in human HepG2 cells after 24 hrs by Annexin V-FITC/propidium iodide staining based flow cytometry; type: functional, cell-based
[15] = Drug uptake in human HepG2 cell cytoplasm at 10 mg/ml after 4 hrs by Hoechst 33342 staining based confocal laser scanning microscopic method; type: ADME, subcellular; settings: hepg2, 4 h
[16] = tested on: Mus musculus; assay: Toxicity in Balb/c nude mouse xenografted with human HepG2 cells assessed as change in body weight at 10 mg/kg/day, ip daily for 20 days measured every 2 days during compound dosing; type: organism-based; settings: in vivo

Structure (SMILES) | IC50 [1] | IC50 [2] | IC50 [3] | IC50 [4] | IC50 [5] | other results
CN1C/C(=C\c2ccc(F)cc2)C(=O)/C(=C/c2ccc(C#N)cc2)C1 | 6.14 µM | 5.03 µM | 10.2 µM | 11.2 µM | 20.9 µM | 
COc1cc(/C=C2\CN(C)C/C(=C\c3ccc(Cl)c(Cl)c3)C2=O)cc(OC)c1 | 3.84 µM | 3.26 µM | 6.9 µM | 9.49 µM | 10.6 µM | 
COc1cc(/C=C2\CN(C)C/C(=C\c3ccc(Cl)cc3Cl)C2=O)cc(OC)c1OC | 8.8 µM | 5.02 µM | > 20 µM | > 20 µM | 13.4 µM | 
COc1cc(/C=C2\CN(C)C/C(=C\c3ccc(Cl)cc3)C2=O)cc(OC)c1OC | 8.25 µM | 7.2 µM | > 20 µM | > 20 µM | 14 µM | 
COc1cc(/C=C2\CN(C)C/C(=C\c3cc(OC)c(OC)c(OC)c3)C2=O)cc(OC)c1 | 0.89 µM | 0.72 µM | 2.3 µM | 3.47 µM | 14.6 µM | Activity [1]: Dose-dependent effect; Activity [6]: Active; Activity [2]: Dose-dependent effect; Activity [3]: Dose-dependent effect; Activity [4]: Dose-dependent effect; Activity [7]: Active
COc1cc(/C=C2\CN(C)C/C(=C\c3ccc(Br)cc3)C2=O)cc(OC)c1 | 4.84 µM | 4.27 µM | 5.9 µM | 7.42 µM | 21.3 µM | 
CN1C/C(=C\c2ccc(Br)cc2)C(=O)/C(=C/c2ccc(C#N)cc2)C1 | 4.84 µM | 4.4 µM | 5.9 µM | 7.42 µM | 10.5 µM | 
COc1cc(/C=C2\CN(C)C/C(=C\c3ccccc3F)C2=O)cc(OC)c1 | 1.24 µM | 1.17 µM | 5.45 µM | 6.32 µM | 11.9 µM | 
COc1cc(/C=C2\CN(C)C/C(=C\c3cccc([N+](=O)[O-])c3)C2=O)cc(OC)c1OC | 1.89 µM | 0.89 µM | 5.54 µM | 4.2 µM | 13.6 µM | 
CN1C/C(=C\c2ccc(C(F)(F)F)cc2)C(=O)/C(=C/c2cccc([N+](=O)[O-])c2)C1 | 1.04 µM | 0.97 µM | 3.56 µM | 4.78 µM | 12.4 µM | Activity [1]: Dose-dependent effect; Activity [6]: Active; Activity [2]: Dose-dependent effect; Activity [3]: Dose-dependent effect; Activity [4]: Dose-dependent effect; Activity [7]: Active
COc1cc(/C=C2\CN(C)C/C(=C\c3ccc(Cl)cc3Cl)C2=O)cc(OC)c1 | 6.25 µM | 6.07 µM | 7.76 µM | 11.9 µM | 18.8 µM | 
CN1C/C(=C\c2ccc(C#N)cc2)C(=O)/C(=C/c2ccc(Cl)cc2Cl)C1 | 6.25 µM | 1.91 µM | 7.76 µM | 11.9 µM | 10.8 µM | 
CN1C/C(=C\c2ccc(C(C)(C)C)cc2)C(=O)/C(=C/c2ccccc2F)C1 | 9.12 µM | 13.4 µM | 15.5 µM | 18.2 µM | 25.8 µM | 
CN1C/C(=C\c2ccc(Cl)cc2)C(=O)/C(=C/c2ccc(C#N)cc2)C1 | 5.95 µM | 3.18 µM | 11.2 µM | 13.3 µM | 16.2 µM | 
CN1C/C(=C\c2cccc([N+](=O)[O-])c2)C(=O)/C(=C/c2ccc(Cl)cc2Cl)C1 | 4.8 µM | 3.56 µM | 8.9 µM | 12.4 µM | 14 µM | 
CN1C/C(=C\c2ccc(Br)cc2)C(=O)/C(=C/c2cccc([N+](=O)[O-])c2)C1 | 8.8 µM | 7.69 µM | 11.9 µM | > 20 µM | 9.85 µM | 
CN1C/C(=C\c2ccc(Cl)cc2)C(=O)/C(=C/c2cccc([N+](=O)[O-])c2)C1 | 8.21 µM | 7.87 µM | > 20 µM | > 20 µM | > 20 µM | 
COc1cc(/C=C/C(=O)CC(=O)/C=C/c2ccc(O)c(OC)c2)ccc1O [CURCUMIN] | 13.8 µM | 22.5 µM | 31.9 µM | 23.1 µM | 25.7 µM | 
CN1C/C(=C\c2ccc(C(F)(F)F)cc2)C(=O)/C(=C/c2ccccc2F)C1 | 4.14 µM | 5.93 µM | 6.56 µM | 6.34 µM | 18.6 µM | 

Structure (SMILES) | IC50 [1] | IC50 [2] | IC50 [3] | IC50 [4] | IC50 [5] | other results
CN1C/C(=C\c2ccc(F)cc2)C(=O)/C(=C/c2cccc([N+](=O)[O-])c2)C1 | 9.34 µM | 7.16 µM | 6.25 µM | 11.2 µM | 17.6 µM | 
COc1cc(/C=C2\CN(C)C/C(=C\c3ccc(Cl)cc3)C2=O)cc(OC)c1 | 5.95 µM | 5.86 µM | 11.2 µM | 13.3 µM | 18.9 µM | 
COc1ccc(/C=C2\CN(C)C/C(=C\c3ccccc3F)C2=O)cc1OC | 8.76 µM | 11.2 µM | 14.3 µM | 18 µM | 10.5 µM | 
COc1cc(/C=C2\CN(C)C/C(=C\c3ccc(C#N)cc3)C2=O)cc(OC)c1OC | 1.14 µM | 0.82 µM | 3.42 µM | 4.29 µM | 18.6 µM | Activity [1]: Dose-dependent effect; Activity [6]: Active; Activity [2]: Dose-dependent effect; Activity [3]: Dose-dependent effect; Activity [4]: Dose-dependent effect; Activity [7]: Active
CN1C/C(=C\c2cccc([N+](=O)[O-])c2)C(=O)/C(=C/c2ccc(Cl)c(Cl)c2)C1 | 5.96 µM | 5.02 µM | 9.12 µM | 15.5 µM | 14.8 µM | 
COc1cc(/C=C2\CN(C)C/C(=C\c3ccc(Cl)c(Cl)c3)C2=O)cc(OC)c1OC | 6.96 µM | 5.33 µM | 13.5 µM | 16.1 µM | 18.4 µM | 
COc1cc(/C=C2\CN(C)C/C(=C\c3ccc(F)cc3)C2=O)cc(OC)c1OC | 7.34 µM | 6.13 µM | 7.25 µM | 10.2 µM | 10.7 µM | 
CN1C/C(=C\c2ccc(C#N)cc2)C(=O)/C(=C/c2ccc(C(F)(F)F)cc2)C1 | 0.98 µM | 1.43 µM | 3.21 µM | 4.01 µM | 17.2 µM | 
CN1C/C(=C\c2cccc([N+](=O)[O-])c2)C(=O)/C(=C/c2ccccc2F)C1 | 1.08 µM | 1.01 µM | 2.34 µM | 3.89 µM | 13.5 µM | 
COc1cccc2c1C(=O)c1c(O)c3c(c(O)c1C2=O)C[C@@](O)(C(=O)CO)C[C@@H]3O[C@H]1C[C@H](N)[C@H](O)[C@H](C)O1 [DOXORUBICIN] | 0.68 µM | 0.67 µM | 2.23 µM |  | 6.93 µM | TGI [8]: Active
COc1cc(/C=C2\CN(C)C/C(=C\c3ccc(C#N)cc3)C2=O)cc(OC)c1 | 0.88 µM | 0.94 µM | 3.42 µM | 4.65 µM | 14 µM | 
COc1cc(/C=C2\CN(C)C/C(=C\c3ccccc3F)C2=O)cc(OC)c1OC | 0.67 µM | 0.64 µM | 3.22 µM | 4.34 µM | 12.1 µM | Activity [1]: Dose-dependent effect; Drug uptake [9]: Active; Activity [10]: Active; TGI [11]: Active; Drug uptake [12]: Not Active; Activity [6]: Active; Activity [2]: Dose-dependent effect; Drug uptake [13]: Active; Activity [3]: Dose-dependent effect; Activity [4]: Dose-dependent effect; Activity [14]: Dose-dependent effect; Drug uptake [15]: Not Active; Activity [7]: Active; Activity [16]: Non-Toxic
COc1cc(/C=C2\CN(C)C/C(=C\c3ccc(Br)cc3)C2=O)cc(OC)c1OC | 6.8 µM | 5.33 µM | 11.9 µM | 12.4 µM | 15.4 µM | 
COc1ccc(/C=C2\CN(C)C/C(=C\c3ccccc3F)C2=O)cc1 | 12.2 µM | 15.4 µM | 23.4 µM | 18.4 µM | 22.1 µM | 
COc1cc(/C=C2\CN(C)C/C(=C\c3ccc(F)cc3)C2=O)cc(OC)c1 | 6.14 µM | 5.04 µM | 10.2 µM | 11.2 µM | 21.9 µM | 
CN1C/C(=C\c2cccc(Br)c2)C(=O)/C(=C/c2cccc([N+](=O)[O-])c2)C1 | 4.89 µM | 4.03 µM | 11.1 µM | 12.2 µM | 8.07 µM | 
COc1cc(/C=C2\CN(C)C/C(=C\c3cccc([N+](=O)[O-])c3)C2=O)cc(OC)c1 | 1.84 µM | 1.77 µM | 2.56 µM | 4.42 µM | 10.8 µM | 
CN1C/C(=C\c2ccc(C#N)cc2)C(=O)/C(=C/c2ccccc2F)C1 | 0.59 µM | 0.81 µM | 1.34 µM | 2.67 µM | 11 µM | 
